From patent US4277472A, “3,6-Disubstituted-5,7-(lower alkano)-5,6,7,8-tetrahydropyrido(4,3-C)pyridazines; their intermediates, preparation, antihypertensive use and compositions” (Byk Gulden Lomberg Chemische Fabrik GmbH, priority 1978, dated 1981)

Columns and labels:
[1] = tested on: blood pressure of genetically-hypertensive rats; assay: antihypertensive effect in awake genetically-hypertensive rats, oral, once daily on two consecutive days; assay type: in vivo, rat (Kyoto strain); conditions: for relation between percentage change of the blood pressure (BP) and the applied dose / Th. E. (therapeutic effectiveness) [Serial No. 3 = 1.0]: 24-hour value of the 2nd day; for relation between percentage change of the blood pressure (BP) and the applied dose: dose in μmole/kg; for Th. E. (therapeutic effectiveness) [Serial No. 3 = 1.0]: relative to hydralazine = 1.0
Procedure: In order to determine the anti-hypertensive effect, the compounds or mixtures are administered once daily by means of an oesophageal sound in the stated doses on two consecutive days to, in each case, 8 rats (Kyoto strain) with genetically-caused hypertension. The blood pressure was measured in each case 6 and 24 hours after administration of the substance.
(§1) The measurement of the systolic blood pressure is effected with the aid of an inflatable cuff which is placed around the tail root and on which cuff there are arranged distally annularly 3 piezo-electric crystals (at a distance of 120°) for registering the pulse waves. The determination of the blood pressure is effected through inflation of the cuff and graphic recording of the pulse amplitude [analogously to H. Friebel and E. Vreden, Arch. exper. Path. u. Pharmakol., 232, 419 (1958)]. The animals were kept in an ambience of, and the experiments were carried out at from 22° to 24° C. and from 50 to 60 percent atmospheric humidity. In order to accustom the animals to the measuring process, a measurement was effected on the animals in each case 2 to 3 times daily for three days. For this purpose, as in the subsequent experiments, the rats were put into tunnel-shaped wire cages; one narrow side of the cages is slidable, the other has an opening for taking the tail through. In order to ensure a better blood flow through the tail artery during the measurement, the tails are irradiated for from 5 to 10 minutes with a red light lamp (150 watts) (distance: animal-lamp=50 cm). The air temperature immediately ambient to the tail is from 30° to 33° C. The body of the animals is covered and thus protected from direct irradiation.
(§2) Table I reproduces for the representatives of the compounds according to the invention the percentage lowering of the blood pressure after oral administration in the rat and the lethal effect after oral administration in the mouse.
% Change of blood pressure (BP) in genetically-hypertensive rats after
single daily application per os on two consecutive days (N = 8/dose)

[2] = acute oral toxicity, LD50, mouse; design: species or system mouse (NMRI, female); conditions: in vivo, per os, single administration, mice, N = 5/dose, 14 days observation
Procedure: The toxicity investigations were carried out on female NMRI mice (body weight from 22 to 26 g). The animals (5 animals per dose) receive food and water ad libitum. Different doses of the substances are administered orally. The duration of observation is 14 days. The LD50, i.e. the dose at which 50 percent of the animals die, is determined graphically from the dose effect curve.
as §2
and toxicity (per os; LD50) in mice (N = 5/dose)

[3] = tested on: blood pressure of genetically-hypertensive rats; assay: lowering of blood pressure of genetically-hypertensive rats, oral, once daily on 10 consecutive days; assay type: in vivo, rat (Kyoto strain); conditions: 6 h after application
Procedure: as §1
In Table III there is represented the lowering of the blood pressure of genetically-hypertensive rats in the case of oral application of 3-hydrazino-5,7-propano-5,6,7,8-tetrahydro-6-pyrido[4,3-c]pyridazine carboxylic acid ethyl ester fumarate. In each case 8 animals received the stated dose once daily on 10 consecutive days.
Lowering of the blood pressure of genetically-hypertensive rats
(in mm Hg) in the case of administration of different doses of No. 4
(in mg/kg rat), measured on 10 consecutive days (6 hours after
application in each case).
Doses: a = 1.25 mg/kg; b = 2.5 mg/kg; c = 5.0 mg/kg; d = 10.0 mg/kg.

[4] = 5 mg/kg per os on 2nd day (half of original dose)
[5] = 5 mg/kg per os on 2nd day (half of original dose), 24 h

SMILES: NNc1nncc2ccccc12 [Serial No. 3, 1-hydrazinophthalazine, reference compound]
- BP (% change), 1st day, 6 h ([1]; 20 mg/kg per os): -10.7%
- BP (% change), 1st day, 24 h ([1]; 20 mg/kg per os, 24 h): -1.5%
- BP (% change), 2nd day, 6 h ([1]; 20 mg/kg per os, 2nd day): -11.8%
- BP (% change) 2nd day, 24 h ([1]; 20 mg/kg per os, 2nd day, 24 h): -6.1%
- relation between percentage change of the blood pressure (BP) and the applied dose [1]: 0.0488
- BP (% change) 2nd day, 24 h ([1]; Table II, dose 125.0 μmole/kg): -6.1%
- Th. E. (therapeutic effectiveness) [Serial No. 3 = 1.0] [1]: 1.0

SMILES: CCOC(=O)N1C2CCC1c1cc(NN=C(C)C)nnc1C2 (stereo not shown) [Serial No. 6, 3-isopropylidenehydrazino-5,7-ethano-5,6,7,8-tetrahydro-6-pyrido[4,3-c]-pyridazine carboxylic acid ethyl ester]
- BP (% change), 2nd day, 6 h [1, 4]: -21.5%
- BP (% change) 2nd day, 24 h [1, 5]: -23.1%
- BP (% change), 1st day, 6 h ([1]; 10 mg/kg per os): -23.1%
- BP (% change), 1st day, 24 h ([1]; 10 mg/kg per os, 24 h): -20.5%
- relation between percentage change of the blood pressure (BP) and the applied dose [1]: 1.40
- BP (% change) 2nd day, 24 h ([1]; Table II, dose 16.5 μmole/kg): -23.1%
- Th. E. (therapeutic effectiveness) [Serial No. 3 = 1.0] [1]: 28.7
- LD50 at 336 h [2]: 300 mg/kg

SMILES: CCOC(=O)N1C2CCCC1c1cc(NN)nnc1C2 (stereo not shown) [3-hydrazino-5,7-propano-5,6,7,8-tetrahydro-6-pyrido[4,3-c]pyridazine carboxylic acid ethyl ester]
- anti-hypertensive effectiveness and duration of action, in words ([1]; awake genetically-hypertensive rats, compared with hydralazine and known compounds): considerably higher anti-hypertensive effectiveness and longer duration of action than hydralazine

SMILES: CC(C)=NNc1cc2c(nn1)CC1CCCC2N1C(=O)c1ccccc1 (stereo not shown) [Serial No. 5, 6-benzoyl-3-isopropylidenehydrazino-5,7-propano-5,6,7,8-tetrahydropyrido[4,3-c]pyridazine]
- BP (% change), 2nd day, 6 h [1, 4]: -15.2%
- BP (% change) 2nd day, 24 h [1, 5]: -12.8%
- BP (% change), 1st day, 6 h ([1]; 10 mg/kg per os): -20.1%
- BP (% change), 1st day, 24 h ([1]; 10 mg/kg per os, 24 h): -4.4%
- relation between percentage change of the blood pressure (BP) and the applied dose [1]: 0.87
- BP (% change) 2nd day, 24 h ([1]; Table II, dose 14.3 μmole/kg): -12.8%
- Th. E. (therapeutic effectiveness) [Serial No. 3 = 1.0] [1]: 17.8
- LD50 at 336 h [2]: 510 mg/kg

SMILES: CCOC(=O)N1C2CCCC1c1cc(NN)nnc1C2.O=C(O)/C=C/C(=O)O (stereo not shown) [Serial No. 4, 3-hydrazino-5,7-propano-5,6,7,8-tetrahydro-6-pyrido[4,3-c]pyridazine carboxylic acid ethyl ester fumarate]
- BP (% change), 1st day, 6 h ([1]; 2.5 mg/kg per os): -9.0%
- BP (% change), 1st day, 24 h ([1]; 2.5 mg/kg per os, 24 h): -11.8%
- BP (% change), 2nd day, 6 h ([1]; 2.5 mg/kg per os, 2nd day): -15.9%
- BP (% change) 2nd day, 24 h ([1]; 2.5 mg/kg per os, 2nd day, 24 h): -17.1%
- relation between percentage change of the blood pressure (BP) and the applied dose [1]: 1.90
- BP (% change) 2nd day, 24 h ([1]; Table II, dose 9.0 μmole/kg): -17.1%
- Th. E. (therapeutic effectiveness) [Serial No. 3 = 1.0] [1]: 38.9
- LD50 at 336 h [2]: 400 mg/kg
- Lowering of the blood pressure ([3]; day 1, a = 1.25 mg/kg oral): 25.0 mm Hg
- Lowering of the blood pressure ([3]; day 1, b = 2.5 mg/kg oral): 35.0 mm Hg
- Lowering of the blood pressure ([3]; day 1, c = 5.0 mg/kg oral): 48.0 mm Hg
- Lowering of the blood pressure ([3]; day 1, d = 10.0 mg/kg oral): 58.0 mm Hg
- Lowering of the blood pressure ([3]; day 2, a = 1.25 mg/kg oral): 14.0 mm Hg
- Lowering of the blood pressure ([3]; day 2, b = 2.5 mg/kg oral): 59.0 mm Hg
- Lowering of the blood pressure ([3]; day 2, c = 5.0 mg/kg oral): 67.0 mm Hg
- Lowering of the blood pressure ([3]; day 2, d = 10.0 mg/kg oral): 77.5 mm Hg
- Lowering of the blood pressure ([3]; day 3, a = 1.25 mg/kg oral): 20.0 mm Hg
- Lowering of the blood pressure ([3]; day 3, b = 2.5 mg/kg oral): 44.0 mm Hg
- Lowering of the blood pressure ([3]; day 3, c = 5.0 mg/kg oral): 53.0 mm Hg
- Lowering of the blood pressure ([3]; day 3, d = 10.0 mg/kg oral): 66.0 mm Hg
- Lowering of the blood pressure ([3]; day 4, a = 1.25 mg/kg oral): 21.0 mm Hg
- Lowering of the blood pressure ([3]; day 4, b = 2.5 mg/kg oral): 67.0 mm Hg
- Lowering of the blood pressure ([3]; day 4, c = 5.0 mg/kg oral): 72.0 mm Hg
- Lowering of the blood pressure ([3]; day 4, d = 10.0 mg/kg oral): 74.0 mm Hg
- Lowering of the blood pressure ([3]; day 7, a = 1.25 mg/kg oral): 27.0 mm Hg
- Lowering of the blood pressure ([3]; day 7, b = 2.5 mg/kg oral): 53.0 mm Hg
- Lowering of the blood pressure ([3]; day 7, c = 5.0 mg/kg oral): 59.0 mm Hg
- Lowering of the blood pressure ([3]; day 7, d = 10.0 mg/kg oral): 69.0 mm Hg
- Lowering of the blood pressure ([3]; day 8, a = 1.25 mg/kg oral): 21.0 mm Hg
- Lowering of the blood pressure ([3]; day 8, b = 2.5 mg/kg oral): 66.0 mm Hg
- Lowering of the blood pressure ([3]; day 8, c = 5.0 mg/kg oral): 67.0 mm Hg
- Lowering of the blood pressure ([3]; day 8, d = 10.0 mg/kg oral): 66.0 mm Hg
- Lowering of the blood pressure ([3]; day 9, b = 2.5 mg/kg oral): 64.0 mm Hg
- Lowering of the blood pressure ([3]; day 9, c = 5.0 mg/kg oral): 63.0 mm Hg
- Lowering of the blood pressure ([3]; day 9, d = 10.0 mg/kg oral): 61.0 mm Hg
- Lowering of the blood pressure ([3]; day 10, b = 2.5 mg/kg oral): 71.0 mm Hg
- Lowering of the blood pressure ([3]; day 10, c = 5.0 mg/kg oral): 66.0 mm Hg
- Lowering of the blood pressure ([3]; day 10, d = 10.0 mg/kg oral): 63.0 mm Hg

SMILES: CCOC(=O)N1CCc2nnc(NN)cc2C1 [Serial No. 1, 3-hydrazino-5,6,7,8-tetrahydro-6-pyrido[4,3-c]pyridazine carboxylic acid ethyl ester, reference compound]
- BP (% change), 2nd day, 6 h [1, 4]: -17.5%
- BP (% change), 1st day, 6 h ([1]; 10 mg/kg per os): -24.5%
- BP (% change), 1st day, 24 h ([1]; 10 mg/kg per os, 24 h): -6.0%
- relation between percentage change of the blood pressure (BP) and the applied dose [1]: 0.404
- BP (% change) 2nd day, 24 h ([1]; Table II, dose 21.05 μmole/kg): -8.5%
- Th. E. (therapeutic effectiveness) [Serial No. 3 = 1.0] [1]: 8.3
- LD50 at 336 h [2]: 340 mg/kg

SMILES: CCOC(=O)N1CCc2nnc(NN)c(C)c2C1.Cl [Serial No. 2, 3-hydrazino-4-methyl-5,6,7,8-tetrahydro-6-pyrido[4,3-c]pyridazine carboxylic acid ethyl ester hydrochloride, reference compound]
- BP (% change), 1st day, 6 h ([1]; 20 mg/kg per os): -4.7%
- BP (% change), 1st day, 24 h ([1]; 20 mg/kg per os, 24 h): -1.0%
- BP (% change), 2nd day, 6 h ([1]; 20 mg/kg per os, 2nd day): -4.7%
- BP (% change) 2nd day, 24 h ([1]; 20 mg/kg per os, 2nd day, 24 h): -3.7%
- relation between percentage change of the blood pressure (BP) and the applied dose [1]: 0.046
- BP (% change) 2nd day, 24 h ([1]; Table II, dose 79.6 μmole/kg): -3.7%
- Th. E. (therapeutic effectiveness) [Serial No. 3 = 1.0] [1]: 0.9
